Results as given in PubChem BioAssay AID2060895 (Molecular Pharmacology Branch, DTP, NCI, 2025).

Test system: PDC 899932-113-R3-J6 complex spheroid viability
Assay: Anticancer human tumor 899932-113-R3-J6-PDC patient-derived melanoma cell line growth inhibition [RAS]
Conditions: for IC50: curve of first compound; for viability, T/C: stronger effect = lower value
Outline: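 Agents were tested in combination matrices in half-log decrements from a top concentration at or near clinical Cmax (10 microM if undetermined). Targets were multi-cell spheroids of tumour lines plus HUVEC and MSC stromal cells.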

[1] = second compound 0.00316 µM, first compound 0.0316 µM
[2] = second compound 0.00316 µM, first compound 0.1 µM
[3] = second compound 0.00316 µM, first compound 0.316 µM
[4] = second compound 0.00316 µM, first compound 1 µM
[5] = second compound 0.01 µM, first compound 0.0316 µM
[6] = second compound 0.01 µM, first compound 0.1 µM
[7] = second compound 0.01 µM, first compound 0.316 µM
[8] = second compound 0.01 µM, first compound 1 µM
[9] = second compound 0.0316 µM, first compound 0.0316 µM
[10] = second compound 0.0316 µM, first compound 0.1 µM
[11] = second compound 0.0316 µM, first compound 0.316 µM
[12] = second compound 0.0316 µM, first compound 1 µM
[13] = second compound 0.1 µM, first compound 0.0316 µM
[14] = second compound 0.1 µM, first compound 0.1 µM
[15] = second compound 0.1 µM, first compound 0.316 µM
[16] = second compound 0.1 µM, first compound 1 µM
[17] = second compound 0.316 µM, first compound 0.0316 µM
[18] = second compound 0.316 µM, first compound 0.1 µM
[19] = second compound 0.316 µM, first compound 0.316 µM
[20] = second compound 0.316 µM, first compound 1 µM
[21] = second compound 1 µM, first compound 0.0316 µM
[22] = second compound 1 µM, first compound 0.1 µM
[23] = second compound 1 µM, first compound 0.316 µM
[24] = second compound 1 µM, first compound 1 µM
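Throughout, for viability, T/C: spheroids exposed to agents for seven days before readout; 100% = DMSO vehicle control wells.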

Question: How did the IC50 (second compound 0.00316 µM) turn out when `CC(=O)OC12COC1CC(O)C1(C)C(=O)C(O)C3=C(C)C(OC(=O)C(O)C(NC(=O)OC(C)(C)C)c4ccccc4)CC(O)(C(OC(=O)c4ccccc4)C21)C3(C)C` (centres undefined) + C=CC(=O)N1CCN(c2nc(OCC3CCCN3C)nc3c(F)c(-c4nc(N)cc(C)c4C(F)(F)F)c(Cl)cc23)C(C)C1 was run?
Answer: < 31.6 nM

Question: What about the IC50 (second compound 0.01 µM) of the same compound?
Answer: < 31.6 nM

Question: What about the IC50 (second compound 0.0316 µM) of the same compound?
Answer: < 31.6 nM

Question: What about the IC50 (second compound 0.1 µM) of the same compound?
Answer: < 31.6 nM

Question: What about the IC50 (second compound 0.316 µM) of the same compound?
Answer: < 31.6 nM

Question: And the IC50 (second compound 1 µM)?
Answer: < 31.6 nM

Question: And the viability, T/C [1]?
Answer: 30.5%

Question: What about the viability, T/C [2] of the same compound?
Answer: 30.6%

Question: And the viability, T/C [3]?
Answer: 40%

Question: What about the viability, T/C [4] of the same compound?
Answer: 46.4%

Question: And the viability, T/C (second compound 0.00316 µM, first compound 3.16 µM)?
Answer: 69.7%

Question: What about the viability, T/C (second compound 0.00316 µM, first compound 10 µM) of the same compound?
Answer: 82.1%

Question: And the viability, T/C [5]?
Answer: 31.2%

Question: And the viability, T/C [6]?
Answer: 36.1%

Question: What about the viability, T/C [7] of the same compound?
Answer: 39.6%

Question: And the viability, T/C [8]?
Answer: 57.3%

Question: What about the viability, T/C (second compound 0.01 µM, first compound 3.16 µM) of the same compound?
Answer: 49.5%

Question: What about the viability, T/C (second compound 0.01 µM, first compound 10 µM) of the same compound?
Answer: 76.6%

Question: What about the viability, T/C [9] of the same compound?
Answer: 31%

Question: And the viability, T/C [10]?
Answer: 43.6%

Question: And the viability, T/C [11]?
Answer: 42.2%

Question: What about the viability, T/C [12] of the same compound?
Answer: 48.4%

Question: And the viability, T/C (second compound 0.0316 µM, first compound 3.16 µM)?
Answer: 68.3%

Question: And the viability, T/C (second compound 0.0316 µM, first compound 10 µM)?
Answer: 60.8%

Question: And the viability, T/C [13]?
Answer: 34.5%

Question: And the viability, T/C [14]?
Answer: 37.2%

Question: What about the viability, T/C [15] of the same compound?
Answer: 34.2%

Question: And the viability, T/C [16]?
Answer: 50.4%

Question: And the viability, T/C (second compound 0.1 µM, first compound 3.16 µM)?
Answer: 73.6%

Question: And the viability, T/C (second compound 0.1 µM, first compound 10 µM)?
Answer: 74%

Question: And the viability, T/C [17]?
Answer: 27.6%

Question: And the viability, T/C [18]?
Answer: 34.3%

Question: What about the viability, T/C [19] of the same compound?
Answer: 44.8%

Question: And the viability, T/C [20]?
Answer: 47.1%

Question: And the viability, T/C (second compound 0.316 µM, first compound 3.16 µM)?
Answer: 75.1%

Question: And the viability, T/C (second compound 0.316 µM, first compound 10 µM)?
Answer: 79%

Question: And the viability, T/C [21]?
Answer: 31.5%

Question: What about the viability, T/C [22] of the same compound?
Answer: 37.1%

Question: And the viability, T/C [23]?
Answer: 38.8%

Question: And the viability, T/C [24]?
Answer: 51%

Question: And the viability, T/C (second compound 1 µM, first compound 3.16 µM)?
Answer: 68.5%

Question: What about the viability, T/C (second compound 1 µM, first compound 10 µM) of the same compound?
Answer: 69.2%

Question: Which results are given for `Nc1ccn(C2OC(CO)C(O)C2(F)F)c(=O)n1` (centres undefined) + C=CC(=O)N1CCN(c2nc(OCC3CCCN3C)nc3c(F)c(-c4nc(N)cc(C)c4C(F)(F)F)c(Cl)cc23)C(C)C1?
Answer: IC50 (second compound 0.00316 µM): 19.4 nM; IC50 (second compound 0.01 µM): 19.3 nM; IC50 (second compound 0.0316 µM): 21.2 nM; IC50 (second compound 0.1 µM): 22.2 nM; IC50 (second compound 0.316 µM): 19.1 nM; IC50 (second compound 1 µM): 17.4 nM; viability, T/C (second compound 0.00316 µM, first compound 0.00316 µM): 98.2%; viability, T/C (second compound 0.00316 µM, first compound 0.01 µM): 68.9%; viability, T/C [1]: 37.3%; viability, T/C [2]: 20.8%; viability, T/C [3]: 23.6%; viability, T/C [4]: 25.7%; viability, T/C (second compound 0.01 µM, first compound 0.00316 µM): 97.5%; viability, T/C (second compound 0.01 µM, first compound 0.01 µM): 73.5%; viability, T/C [5]: 32.8%; viability, T/C [6]: 20%; viability, T/C [7]: 24.9%; viability, T/C [8]: 22.6%; viability, T/C (second compound 0.0316 µM, first compound 0.00316 µM): 99.3%; viability, T/C (second compound 0.0316 µM, first compound 0.01 µM): 74.4%; viability, T/C [9]: 38.5%; viability, T/C [10]: 18.3%; viability, T/C [11]: 20.9%; viability, T/C [12]: 24%; viability, T/C (second compound 0.1 µM, first compound 0.00316 µM): 106%; viability, T/C (second compound 0.1 µM, first compound 0.01 µM): 86%; viability, T/C [13]: 34%; viability, T/C [14]: 23.8%; viability, T/C [15]: 21.7%; viability, T/C [16]: 23.2%; viability, T/C (second compound 0.316 µM, first compound 0.00316 µM): 98.9%; viability, T/C (second compound 0.316 µM, first compound 0.01 µM): 73%; viability, T/C [17]: 32.4%; viability, T/C [18]: 22.6%; viability, T/C [19]: 24.1%; viability, T/C [20]: 26.3%; viability, T/C (second compound 1 µM, first compound 0.00316 µM): 97.1%; viability, T/C (second compound 1 µM, first compound 0.01 µM): 64.2%; viability, T/C [21]: 35.5%; viability, T/C [22]: 21.9%; viability, T/C [23]: 17.9%; viability, T/C [24]: 24.3%
